Target: T1, human EGF-R (Homo sapiens, UniProt P00533)
T1 construct: expressed in transfected cells; host or cells: F/L-HERc cells, derived from the murine IL-3-dependent line FDC-P1 ('FDC-PI' [sic]); retroviral vector LXSN, packaging line GP+E86
T1 sequence (P00533 25-1210): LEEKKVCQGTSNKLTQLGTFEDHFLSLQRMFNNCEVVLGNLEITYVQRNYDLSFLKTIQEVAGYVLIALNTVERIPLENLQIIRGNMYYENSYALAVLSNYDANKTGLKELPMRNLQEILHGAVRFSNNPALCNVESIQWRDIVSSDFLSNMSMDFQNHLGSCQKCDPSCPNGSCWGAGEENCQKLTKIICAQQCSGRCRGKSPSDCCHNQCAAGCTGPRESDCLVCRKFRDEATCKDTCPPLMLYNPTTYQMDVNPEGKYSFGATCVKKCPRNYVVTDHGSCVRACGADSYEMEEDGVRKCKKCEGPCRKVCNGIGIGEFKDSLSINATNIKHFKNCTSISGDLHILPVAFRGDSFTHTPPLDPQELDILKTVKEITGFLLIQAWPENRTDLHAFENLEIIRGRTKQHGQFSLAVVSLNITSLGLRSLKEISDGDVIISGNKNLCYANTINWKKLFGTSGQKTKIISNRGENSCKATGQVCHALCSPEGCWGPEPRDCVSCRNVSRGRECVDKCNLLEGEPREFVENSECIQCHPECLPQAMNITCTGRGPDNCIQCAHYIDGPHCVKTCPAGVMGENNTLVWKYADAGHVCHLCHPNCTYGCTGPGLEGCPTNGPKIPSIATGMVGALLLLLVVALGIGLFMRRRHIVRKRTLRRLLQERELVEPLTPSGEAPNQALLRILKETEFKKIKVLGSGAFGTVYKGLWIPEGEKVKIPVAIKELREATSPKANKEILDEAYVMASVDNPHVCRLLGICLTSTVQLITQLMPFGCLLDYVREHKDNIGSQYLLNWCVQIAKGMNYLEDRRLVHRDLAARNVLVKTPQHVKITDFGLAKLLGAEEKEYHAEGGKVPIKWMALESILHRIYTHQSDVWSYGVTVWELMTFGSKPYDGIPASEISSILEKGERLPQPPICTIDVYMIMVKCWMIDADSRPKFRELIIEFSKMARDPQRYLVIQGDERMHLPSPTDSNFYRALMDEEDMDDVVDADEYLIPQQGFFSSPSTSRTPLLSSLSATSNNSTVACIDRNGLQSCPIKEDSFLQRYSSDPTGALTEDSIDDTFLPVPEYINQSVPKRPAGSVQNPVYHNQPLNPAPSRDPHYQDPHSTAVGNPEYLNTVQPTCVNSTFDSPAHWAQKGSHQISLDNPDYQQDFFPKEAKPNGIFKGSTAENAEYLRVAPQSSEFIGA
Experiment: Inhibition of EGF-dependent proliferation of F/L-HERc cells (Cell Titer 96 AQueous assay)
Type: cell-based
Conditions: F/L-HERc cells (murine IL-3-dependent line expressing human EGF-R), stimulated with EGF 20 ng/ml, 48 hours at 37° C.
Excerpt: A cell line of murine origin dependent on interleukin-3 (IL-3) which was genetically modified to express functional human EGF-R was used here. The proliferation of these cells known as F/L-HERc can therefore be stimulated either by murine IL-3 or by EGF (cf. von Rüden, T. et al. in EMBO J. 7, 2749-2756 (1988) and Pierce, J. H. et al. in Science 239. 628-631 (1988)).
The starting material used for the F/L-HERc cells was the cell line FDC-PI, the production of which has been described by Dexter, T. M. et al, in J. Exp. Med. 152, 1036-1047 (1980). alternatively, however, other growth-factor-dependent cells may also be used (cf. for example Pierce, J. H. et al. in Science 239, 628-631 (1988), Shibuya, H. et al. in Cell 70, 57-67 (1992) and alexander, W. S. et al. in EMBO J. 10, 3683-3691 (1991)). For expressing the human EGF-R cDNA (cf. Ullrich, A. et al. in Nature 309, 418-425 (1984)) recombinant retroviruses were used as described by von Rüden, T. et al., EMBO J. 7, 2749-2756 (1988), except that the retroviral vector LXSN (cf. Miller, A. D. et al. in BioTechniques 1, 980-990 (1989)) was used for the expression of the EGF-R cDNA and the line GP+E86 (cf, Markowitz, D, et al. in J. Virol. 62, 1120-1124 (1988)) was used as the packaging cell.
The test was performed as follows: • F/L-HERC cells were cultivated in RPMI/1640 medium (BioWhittaker), supplemented with 10% foetal calf serum (FCS, Boehringer Mannheim). 2 mM glutamine (BioWhittaker), standard antibiotics and 20 ng/ml of human EGF (Promega), at 37° C. and 5% CO2. In order to investigate the inhibitory activity of the compounds according to the invention, 1.5×10^4 cells per well were cultivated in triplicate in 96-well plates in the above medium ([…]), the cell proliferation being stimulated with either EGF (20 ng/ml) or murine IL-3. The IL-3 used was obtained from culture supernatants of the cell line X63/0 mIL-3 (cf. Karasuyama, 4. et al. in Eur. J. Immunol. 18, 97-104 (19881). The compounds according to the invention were dissolved in 100% dimethylsulphoxide (DMSO) and added to the cultures in various dilutions, the maximum DMSO concentration being 1%. The cultures were incubated for 48 hours at 37° C.
In order to determine the inhibitory activity of the compounds according to the invention the relative cell number was measured in O.D. units using the Cell Titer 96™ AQueous Non-Radioactive Cell Proliferation Assay (Promega). The relative cell number was calculated as a percentage of the control (F/LHERc cells without inhibitor) and the concentration of active substance which inhibits the proliferation of the cells by 50% (IC50) was derived therefrom.
In the case of `C=CC(=O)Nc1cc2c(Nc3cccc(Br)c3)ncnc2cc1OCCCN1CCN(CCCC(=O)OCC)CC1` [1(4), 4-[(3-bromophenyl)amino]-7-(3-{4-[3-(ethoxycarbonyl)propyl]-piperazin-1-yl}propyloxy)-6-[(vinylcarbonyl)amino]-quinazoline], the IC50 is reported as 15 nM. `C=CC(=O)Nc1cc2c(Nc3cccc(Br)c3)ncnc2cc1OC1CCN(CC(=O)OCC)CC1` [1(6), 4-[(3-bromophenyl)amino]-7-((1-[(ethoxycarbonyl)methyl]-piperidin-4-yl)oxy)-6-[(vinylcarbonyl)amino]-quinazoline] showed an IC50 of 15 nM. In the case of `C=CC(=O)Nc1cc2c(Nc3cccc(Br)c3)ncnc2cc1OCCCN1CCN(CP(=O)(OCC)OCC)CC1` [1(10), 4-[(3-bromophenyl)amino]-7-(3-{4-[(diethoxyphosphoryl)-methyl]-piperazin-1-yl}propyloxy)-6-[(vinylcarbonyl)amino]-quinazoline], the IC50 is reported as 21 nM. Molecule `C=CC(=O)Nc1cc2c(Nc3cccc(Br)c3)ncnc2cc1OCCCN(C)CC(=O)OCC` [1(13), 4-[(3-bromophenyl)amino]-7-(3-{N-[(ethoxycarbonyl)methyl]-N-methylamino)propyloxy)-6-[(vinylcarbonyl)amino]-quinazoline] has an IC50 of 8.7 nM. `CCOP(=O)(CN(C)CC=CC(=O)Nc1cc2c(Nc3cccc(Br)c3)ncnc2cc1OC)OCC` [2(4), 4-[(3-bromophenyl)amino]-6-[(4-{N-[(diethoxyphosphoryl)methyl]-N-methylamino}-1-oxo-2-buten-1-yl)amino]-7-methoxy-quinazoline] gave an IC50 of 6.7 nM. In the case of `CCOC(=O)CN(C)CC=CC(=O)Nc1cc2c(N[C@H](C)c3ccccc3)ncnc2cc1OC` [5(2), (R)-4-[(1-phenylethyl)amino]-6-[(4-(N-[(ethoxycarbonyl)methyl]-N-methylamino}-1-oxo-2-buten-1-yl)amino]-7-methoxy-quinazoline], the IC50 is reported as 9 nM. `COc1cc2ncnc(Nc3cccc(Br)c3)c2cc1NC(=O)C=CCN(C)CC(OC)OC` [5(8), 4-[(3-bromophenyl)amino]-6-({4-[N-(2,2-dimethoxyethyl)-N-methylamino]-1-oxo-2-buten-1-yl}amino)-7-methoxy-quinazoline] showed an IC50 of 1.8 nM. In the case of `CCOC1CN(CC=CC(=O)Nc2cc3c(Nc4cccc(Br)c4)ncnc3cc2OC)CCO1` (stereo not shown) [5(10), 4-[(3-bromophenyl)amino]-6-([4-(2-ethoxy-morpholin-4-yl)-1-oxo-2-buten-1-yl]amino)-7-methoxy-quinazoline], the IC50 is reported as 1.8 nM. `CCOC(=O)CN(C)CC=CC(=O)Nc1ccc2ncc(C#N)c(Nc3cccc(Br)c3)c2c1` [5(12), 4-[(3-bromophenyl)amino]-3-cyano-6-[(4-{N-[(ethoxycarbonyl)methyl]-N-methylamino}-1-oxo-2-buten-1-yl)amino]-quinoline] showed an IC50 of 18 nM. In the case of `CCOC(=O)CN1CCN(CC=CC(=O)Nc2cc3c(Nc4ccc(F)c(Cl)c4)ncnc3cc2OCC2CC2)CC1` [5(18)], the IC50 is reported as 7.4 nM. `CCOC(=O)CCN(CC=CC(=O)Nc1cc2c(Nc3ccc(F)c(Cl)c3)ncnc2cc1OCC1CC1)CC(=O)OCC` [5(22)] showed an IC50 of 58 nM. With `O=C(C=CCN1CCOC(=O)C1)Nc1cc2c(Nc3ccc(F)c(Cl)c3)ncnc2cc1OCC1CC1` [5(25), 4-[(3-chloro-4-fluorophenyl)amino]-6-{[4-(2-oxo-morpholin-4-yl)-1-oxo-2-buten-1-yl]amino}-7-cyclopropylmethoxy-quinazoline] the IC50 was 74 nM. `CCOC(=O)CN1CCN(CC=CC(=O)Nc2cc3c(Nc4ccc(F)c(Cl)c4)ncnc3cc2OC2CCC2)CC1` [5(29), 4-[(3-chloro-4-fluorophenyl)amino]-6-[(4-{4-[(ethoxycarbonyl)methyl]-piperazin-1-yl)-1-oxo-2-buten-1-yl}amino]-7-cyclobutyloxy-quinazoline] gave an IC50 of 1.9 nM. Molecule `COC(=O)[C@@H]1CCCN1CC=CC(=O)Nc1cc2c(Nc3ccc(F)c(Cl)c3)ncnc2cc1OCC1CC1` [5(36)] has an IC50 of 3 nM. Molecule `CCOC(=O)CN(CC=CC(=O)Nc1cc2c(Nc3ccc(F)c(Cl)c3)ncnc2cc1OCC1CC1)CCSC(C)=O` [8(1), 4-[(3-chloro-4-fluorophenyl)amino]-6-[(4-(N-[(ethoxycarbonyl)methyl]-N-[2-(acetylsulphanyl)ethyl]amino)-1-oxo-2-buten-1-yl)amino]-7-cyclopropylmethoxy-quinazoline] has an IC50 of 109 nM.

Test system: not given
Experiment: not given
Conditions: not given
`CCOC(=O)CN(C)CCCNC(=O)C=CC(=O)Nc1ccc2ncnc(Nc3cccc(Br)c3)c2c1` [Example 3, 4-[(3-Bromophenyl)amino]-6-{[4-(3-{N-[(ethoxycarbonyl)methyl]-N-methylamino)propylamino)-1,4-dioxo-2-buten-1-yl]amino}-quinazoline] showed a melting point of 199 °C. `CCOC(=O)CN(C)CC=CC(=O)Nc1cc2c(Nc3cccc(C)c3)ncnc2cc1OC` [Example 5, 4-[(3-methylphenyl)amino]-6-[(4-{N-[(ethoxycarbonyl)methyl]-N-methylamino}-1-oxo-2-buten-1-yl)amino]-7-methoxy-quinazoline] gave a melting point of 110 to 114 °C. With `C=CC(=O)Nc1cc2c(Nc3cccc(Br)c3)ncnc2cc1OCCCN1CCN(CC(=O)O)CC1` [Example 6, 4-[(3-Bromophenyl)amino]-7-{3-[4-(carboxymethyl)-piperazin-1-yl]propyloxy}-6-[(vinylcarbonyl)amino]-quinazoline] the melting point was 140 °C (dec.). For `CCOC1CN(CC=CC(=O)Nc2cc3c(Nc4cccc(Br)c4)ncnc3cc2OC)CC(OCC)O1` (stereo not shown) [Example 7, 4-[(3-bromophenyl)amino]-6-{[4-(2,6-diethoxy-morpholin-4-yl)-1-oxo-2-buten-1-yl]amino}-7-methoxy-quinazoline], the melting point was 133 to 138 °C. Molecule `CC1(C)CN(CC=CC(=O)Nc2cc3c(Nc4ccc(F)c(Cl)c4)ncnc3cc2OCC2CC2)CC(=O)O1` [Example 10, 4-[(3-chloro-4-fluorophenyl)amino]-6-{[4-(2,2-dimethyl-6-oxo-morpholin-4-yl)-1-oxo-2-buten-1-yl]amino}-7-cyclopropylmethoxy-quinazoline] has a melting point of 140 to 142 °C. Molecule `O=C(C=CCN1CCN(CC(=O)OCc2ccccc2)CC1)Nc1cc2c(Nc3ccc(F)c(Cl)c3)ncnc2cc1OCC1CC1` [Example 12, 4-[(3-Chloro-4-fluoro-phenyl)amino]-6-[(4-{4-[(benzyloxycarbonyl)methyl]-piperazin-1-yl)-1-oxo-2-buten-1-yl}amino]-7-cyclopropylmethoxy-quinazoline] has a melting point of 174 °C. For `CCOC(=O)C1CN(S(C)(=O)=O)CCN1CC=CC(=O)Nc1cc2c(Nc3ccc(F)c(Cl)c3)ncnc2cc1OCC1CC1` (stereo not shown) [Example 15, 4-[(3-Chloro-4-fluoro-phenyl)amino]-6-({4-[2-(ethoxycarbonyl)-4-(methylsulfonyl)-piperazin-1-yl]-1-oxo-2-buten-1-yl)amino)-7-cyclopropylmethoxy-quinazoline], the melting point was 170 to 173 °C. With `CCOC(=O)CCN1CCN(CC=CC(=O)Nc2cc3c(Nc4ccc(F)c(Cl)c4)ncnc3cc2OCC2CC2)CC1` [Example 16, 4-[(3-Chloro-4-fluoro-phenyl)amino]-6-[(4-{4-[2-(ethoxycarbonyl)-ethyl]-piperazin-1-yl}-1-oxo-2-buten-1-yl)amino]-7-cyclopropylmethoxy-quinazoline] the melting point was 183 to 185 °C. In the case of `CCOC(=O)CN1CCN(C(C)(C)C=CC(=O)Nc2cc3c(Nc4ccc(F)c(Cl)c4)ncnc3cc2OCC2CC2)CC1` [Example 17, 4-[(3-Chloro-4-fluoro-phenyl)amino]-6-[(4,4-dimethyl-4-{4-[(ethoxycarbonyl)methyl]-piperazin-1-yl)-1-oxo-2-buten-1-yl)amino]-7-cyclopropylmethoxy-quinazoline], the melting point is reported as 165 to 167 °C. Work on `CCOC(=O)C1CN(C(C)=O)CCN1CC=CC(=O)Nc1cc2c(Nc3ccc(F)c(Cl)c3)ncnc2cc1OCC1CC1` (stereo not shown) [Example 18, 4-[(3-Chloro-4-fluoro-phenyl)amino]-6-({4-[2-(ethoxycarbonyl)-4-(methylcarbonyl)-piperazin-1-yl]-1-oxo-2-buten-1-yl}amino)-7-cyclopropylmethoxy-quinazoline] yielded a melting point of 152 to 156 °C.

Reference: patent US6972288B1, “4-amino-quinazoline and quinoline derivatives having an inhibitory effect on signal transduction mediated by tyrosine kinases” (Boehringer Ingelheim Pharma KG, priority 1999, dated 2005)
